Source: patent US9289430B2, “Compounds and methods for inhibiting phosphate transport” (Ardelyx, Inc., priority 2010, dated 2016)

Key:
[1] = human absorption data, from Ertl et al., J. Med. Chem. 2000; cited from earlier work
rat NaP2b (SLC34A2) = molecular target: T1, rat NaP2b (SLC34A2) (Rattus norvegicus, UniProt Q9JJ09); assay: NaP2b-mediated Pi transport: 33P phosphate uptake into transfected HEK293 cells; type: cell-based; conditions: 100 uM KH2PO4, PiT-silencing agent, read-out: pIC50 range for rat Nap2b (converted)
T1 construct: host or cells: HEK293
T1 sequence (Q9JJ09 1-695): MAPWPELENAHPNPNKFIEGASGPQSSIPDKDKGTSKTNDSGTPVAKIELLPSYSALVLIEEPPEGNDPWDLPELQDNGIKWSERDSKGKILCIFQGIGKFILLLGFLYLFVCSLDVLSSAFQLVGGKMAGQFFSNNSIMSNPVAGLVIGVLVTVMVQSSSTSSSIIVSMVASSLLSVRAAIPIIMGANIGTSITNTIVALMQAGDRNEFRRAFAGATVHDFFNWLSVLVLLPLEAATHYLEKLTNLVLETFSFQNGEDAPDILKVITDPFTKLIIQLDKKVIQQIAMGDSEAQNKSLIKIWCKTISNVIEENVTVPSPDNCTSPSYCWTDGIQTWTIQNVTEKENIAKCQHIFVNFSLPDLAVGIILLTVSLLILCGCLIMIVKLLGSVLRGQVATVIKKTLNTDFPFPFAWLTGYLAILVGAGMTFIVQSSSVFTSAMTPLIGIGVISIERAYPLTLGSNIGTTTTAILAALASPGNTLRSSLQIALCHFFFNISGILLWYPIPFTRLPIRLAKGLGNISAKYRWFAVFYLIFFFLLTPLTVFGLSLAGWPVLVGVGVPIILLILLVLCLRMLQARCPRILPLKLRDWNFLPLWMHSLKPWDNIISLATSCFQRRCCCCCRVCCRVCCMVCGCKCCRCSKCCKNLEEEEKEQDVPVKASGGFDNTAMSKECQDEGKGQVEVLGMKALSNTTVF
Description: Materials. HEK293 cells were obtained from the American Type Culture collection and propagated per their instructions. Expression clones for rat and human NaP2b (SLC34A2) were obtained from Open Biosystems (Catalog numbers MRN1768-9510282, and MHS1010-99823026, respectively). The sequence of the human protein was mutated to insert a threonine after residue 37, and to introduce a N39D mutation.
Inhibition of Pi Transport. The rate of phosphate (Pi) uptake into HEK293 cells was measured using a modification of the method described by Mohrmann et al. (Mohrmann, I., Mohrmann, M., Biber, J., and Murer, H. (1986) Am. J. Phys. 250(3 Pt 1):G323-30.) Transfected HEK293 cells were treated with a pharmacological agent to minimize endogenous PiT-mediated phosphate transport activity, such that the only remaining sodium-dependent phosphate transport activity is that which was bestowed by introduction of the NaP2b genes.
Cells were seeded into 96-well plates at 25,000 cells/well and cultured overnight. Lipofectamine 2000 (Invitrogen) was used to introduce the NaP2b cDNA, and the cells were allowed to approach confluence during a second overnight incubation. […] Cells were then overlayed with either choline uptake buffer or sodium uptake buffer (14 mM Tris, 137 mM sodium chloride, 5.4 mM KCl, 2.8 mM CaCl2, 1.2 mM MgSO4, 100 uM KH2PO4, PiT-silencing agent, 1 mg/mL Bovine Serum Albumin, pH 7.4) containing 6-9 uCi/mL ^33P orthophosphoric acid (Perkin Elmer) and test compound. Each compound was tested at twelve concentrations ranging from 0.1 nM to 30 uM. Assays were run in duplicate.
After incubation for 3-30 minutes at room temperature, assay mixtures were removed, and the cells were washed twice with ice cold stop solution (137 mM sodium chloride, 14 mM Tris, pH 7.4). Cells were lysed by addition of 20 μL 0.1% Tween 80 followed by 100 μL scintillation fluid, and counted using a TopCount (Perkin Elmer).
pIC50 (the negative log of the IC50) values of the test compounds were calculated using GraphPad Prism.

Row | Compound | IC50 (rat NaP2b (SLC34A2)) | % FA [1]
1 | OC[C@H]1O[C@H](OC[C@H]2O[C@H](O[C@]3(CO)O[C@H](CO)[C@@H](O)[C@@H]3O)[C@H](O)[C@@H](O)[C@@H]2O)[C@H](O)[C@@H](O)[C@H]1O [raffinose] |  | 0.3%
2 | Cc1ccccc1N1C(=O)c2cc(S(N)(=O)=O)c(Cl)cc2NC1C (centres unmarked) [metolazone] |  | 64%
3 | CCN1CCCC1CNC(=O)c1cc(S(N)(=O)=O)ccc1OC (centres unmarked) [sulpiride] |  | 36%
4 | CN(CCN1CCOCC1)C(=O)c1cccc(C(=O)Nc2ccc(N3CCCCC3)cc2C(=O)Nc2nc(-c3cccc(C(F)(F)F)c3)cs2)c1 [Example 3, N1-Methyl-N1-(2-morpholinoethyl)-N3-(4-(piperidin-1-yl)-2-((4-(3-(trifluoromethyl)phenyl)thiazol-2-yl)carbamoyl)phenyl)isophthalamide] | < 1 µM | 
5 | C=CCc1ccccc1OCC(O)CNC(C)C (centres unmarked) [alprenolol] |  | 96%
6 | CC(=O)Nc1ccc(OCC(O)CNC(C)C)cc1 (centres unmarked) [practolol] |  | 95%
7 | CC(C)NCC(O)COc1cccc2[nH]ccc12 (centres unmarked) [pindolol] |  | 92%
8 | Cc1ccc(-n2ccc(NC(=O)c3cc(N4CCCCC4)ccc3NC(=O)c3cccc(CSCCC(=O)O)c3)n2)cc1C [Example 5, 3-((3-((2-((1-(3,4-Dimethylphenyl)-1H-pyrazol-3-yl)carbamoyl)-4-(piperidin-1-yl)phenyl)carbamoyl)benzyl)thio)propanoic acid] | 1 to 7.94 µM | 
9 | OC[C@H]1O[C@@H](O[C@@H]2[C@@H](CO)OC(O)(CO)[C@H]2O)[C@H](O)[C@@H](O)[C@H]1O (mixture of isomers) [lactulose] |  | 0.6%
10 | NC[C@H]1CC[C@H](C(=O)O)CC1 [tranexamic acid] |  | 55%
11 | O=C(O)c1cc(/N=N/c2ccc(O)c(C(=O)O)c2)ccc1O [olsalazine] |  | 2.3%
12 | Cc1ccc(-n2ccc(NC(=O)c3cc(Cl)ccc3NC(=O)c3cccc(CSCCC(=O)O)c3)n2)cc1C [Example 4, 3-((3-((4-Chloro-2-((1-(3,4-dimethylphenyl)-1H-pyrazol-3-yl)carbamoyl)phenyl)carbamoyl)benzyl)thio)propanoic acid] | 1 to 7.94 µM | 
13 | CN(CCN1CCOCC1)C(=O)c1cccc(C(=O)Nc2ccc(N3CCCCC3)cc2C(=O)Nc2ncn(-c3cccc(C(F)(F)F)c3)n2)c1 [Example 2, N1-Methyl-N1-(2-morpholinoethyl)-N3-(4-(piperidin-1-yl)-2-((1-(3-(trifluoromethyl)phenyl)-1H-1,2,4-triazol-3-yl)carbamoyl)phenyl)isophthalamide] | 1 to 7.94 µM | 
14 | O=C(O)P(=O)(O)O [foscarnet] |  | 17%
15 | C=CCOc1ccccc1OCC(O)CNC(C)C (centres unmarked) [oxprenolol] |  | 97%
16 | O=C(O)c1cc(/N=N/c2ccc(S(=O)(=O)Nc3ccccn3)cc2)ccc1O [sulfasalazine] |  | 12%
17 | OC[C@@H](O)[C@@H](O)[C@H](O)[C@H](O)CO [mannitol] |  | 26%

Further lines, with some results ahead:

Row | IC50 (rat NaP2b (SLC34A2)) | Compound | % FA [1]
18 | 1 to 7.94 µM | CN(CCOCCOCCOCCC(=O)O)Cc1cccc(C(=O)Nc2ccc(N3CCCCC3)cc2C(=O)Nc2ccn(-c3cccc(C(F)(F)F)c3)n2)n1 [Example 8, 2-methyl-1-(6-((4-(piperidin-1-yl)-2-((1-(3-(trifluoromethyl)phenyl)-1H-pyrazol-3-yl)carbamoyl)phenyl)carbamoyl)pyridin-2-yl)-5,8,11-trioxa-2-azatetradecan-14-oic acid] | 
19 | 1 to 7.94 µM | O=C(O)CCSCc1cccc(C(=O)Nc2ccc(Cl)cc2C(=O)Nc2ccn(-c3cccc(C(F)(F)F)c3)n2)c1 [Example 6, 3-((3-((4-Chloro-2-((1-(3-(trifluoromethyl)phenyl)-1H-pyrazol-3-yl)carbamoyl)phenyl)carbamoyl)benzyl)thio)propanoic acid] | 
20 | 1 to 7.94 µM | COCCNC(=O)CCN(C)Cc1cccc(C(=O)Nc2ccc(N3CCCCC3)cc2C(=O)Nc2ccn(-c3cccc(C(F)(F)F)c3)n2)c1 [Example 16, 2-(3-(((3-((2-methoxyethyl)amino)-3-oxopropyl)(methyl)amino)methyl)-benzamido)-5-(piperidin-1-yl)-N-(1-(3-(trifluoromethyl)phenyl)-1H-pyrazol-3-yl)-benzamide] | 
21 | 10 to 31.6 µM | CCN(CC)CCN(C)Cc1ccc(C(=O)Nc2ccc(N3CCCCC3)cc2C(=O)Nc2ccn(-c3cccc(C(F)(F)F)c3)n2)cc1 [Example 9, 2-(4-(((2-(diethylamino)ethyl)(methyl)amino)methyl)benzamido)-5-(piperidin-1-yl)-N-(1-(3-(trifluoromethyl)phenyl)-1H-pyrazol-3-yl)benzamide] | 
22 | 10 to 31.6 µM | CCN(CC)CCN(C)Cc1cccc(C(=O)Nc2ccc(N3CCCCC3)cc2C(=O)Nc2ccn(-c3cccc(C(F)(F)F)c3)n2)c1 [Example 12, 2-(3-(((2-(Diethylamino)ethyl)(methyl)amino)methyl)benzamido)-5-(piperidin-1-yl)-N-(1-(3-(trifluoromethyl)phenyl)-1H-pyrazol-3-yl)benzamide] | 
23 | 1 to 7.94 µM | O=C(O)c1ccc(SCc2cccc(C(=O)Nc3ccc(N4CCCCC4)cc3C(=O)Nc3ccn(-c4cccc(C(F)(F)F)c4)n3)c2)cc1 [Example 21, 4-((3-((4-(piperidin-1-yl)-2-((1-(3-(trifluoromethyl)phenyl)-1H-pyrazol-3-yl)carbamoyl)phenyl)carbamoyl)benzyl)thio)benzoic acid] | 
24 | 1 to 7.94 µM | O=C(NCCOCCO)c1cccc(C(=O)Nc2ccc(N3CCCCC3)cc2C(=O)Nc2cn(-c3cccc(C(F)(F)F)c3)cn2)c1 [Example 10, N1-(2-(2-Hydroxyethoxyl)ethyl)-N3-(4-(piperidin-1-yl)-2-((1-(3-(trifluoromethyl)phenyl)-1H-imidazol-4-yl)carbamoyl)phenyl)isophthalamide] | 
25 | 1 to 7.94 µM | O=C(NCCOCCO)c1cccc(C(=O)Nc2ccc(N3CCCCC3)cc2C(=O)Nc2ccn(-c3cccc(C(F)(F)F)c3)n2)c1 [Example 13, N1-(2-(2-Hydroxyethoxyl)ethyl)-N3-(4-(piperidin-1-yl)-2-((1-(3-(trifluoromethyl)phenyl)-1H-pyrazol-3-yl)carbamoyl)phenyl)isophthalamide] | 
26 | < 1 µM | O=C(O)Cc1cccc(SCc2cccc(C(=O)Nc3ccc(Cl)cc3C(=O)Nc3ccn(-c4cccc(C(F)(F)F)c4)n3)c2)c1 [Example 24, 2-(3-((3-((4-chloro-2-((1-(3-(trifluoromethyl)phenyl)-1H-pyrazol-3-yl)-carbamoyl)phenyl)carbamoyl)benzyl)thio)phenyl)acetic acid] | 
